HELM strings list units from the 5' end as sugar, base in round brackets, then linkage (d deoxyribose, r ribose, m 2'-O-methyl, p phosphodiester). Strings are as the collection lists them; they lack the last nucleoside at the 3' end of the tested compound. [moe] = 2'-O-(2-methoxyethyl) (MOE); [sp] = phosphorothioate linkage; [m5C] = 5-methylcytosine

This data set has as its target ATXN3. Put plainly: mouse, dose not given. The conditions noted are these: ASO.
On to “RNA1{[moe](G)[sp].[moe](G)p.[moe]([m5C])p.[moe](A)p.[moe]([m5C])p.d(A)[sp].d(T)[sp].d(T)[sp].d(T)[sp].d(T)[sp].d(T)[sp].d(T)[sp].d(A)[sp].d(T)[sp].d(A)[sp].[moe](G)p.[moe](A)p.[moe](G)[sp].[moe](T)}$$$$ (last 3' nucleoside missing)”, for which the 3 h FOB score worked out at 1.25 score 0-7.

As to “RNA1{[moe](G)[sp].[moe](T)p.[moe](G)p.[moe](A)p.[moe]([m5C])[sp].d(T)[sp].d(A)[sp].d(A)[sp].d([m5C])[sp].d(A)[sp].d(G)[sp].d(T)[sp].d(A)[sp].d(T)[sp].d(G)[sp].[moe](T)p.[moe](T)p.[moe](T)[sp].[moe](T)}$$$$ (last 3' nucleoside missing)”, the 3 h FOB score came to 2.25 score 0-7.

Take “RNA1{[moe](G)[sp].[moe](T)p.[moe](G)p.[moe]([m5C])p.[moe](T)[sp].d(A)[sp].d(T)[sp].d(A)[sp].d(A)[sp].d(T)[sp].d(T)[sp].d([m5C])[sp].d(T)[sp].d(T)[sp].d(G)[sp].[moe]([m5C])p.[moe](T)p.[moe](T)[sp].[moe]([m5C])}$$$$ (last 3' nucleoside missing)”: the 3 h FOB score was 1.25 score 0-7.

The substance “RNA1{[moe](G)[sp].[moe](T)p.[moe](G)p.[moe]([m5C])p.[moe](T)[sp].d(T)[sp].d(T)[sp].d(T)[sp].d([m5C])[sp].d(A)[sp].d(T)[sp].d(A)[sp].d([m5C])[sp].d([m5C])[sp].d(A)[sp].[moe](G)p.[moe](G)p.[moe](T)[sp].[moe]([m5C])}$$$$ (last 3' nucleoside missing)” gave a 3 h FOB score of 1 score 0-7.

As for “RNA1{[moe](G)[sp].[moe](T)p.[moe](G)p.[moe]([m5C])p.[moe](T)p.d(T)[sp].d(T)[sp].d(T)[sp].d([m5C])[sp].d(A)[sp].d(T)[sp].d(A)[sp].d([m5C])[sp].d([m5C])[sp].d(A)[sp].[moe](G)p.[moe](G)p.[moe](T)[sp].[moe]([m5C])}$$$$ (last 3' nucleoside missing)”, the 3 h FOB score was found to be 1.5 score 0-7.

Turning to “RNA1{[moe](G)[sp].[moe](T)p.[moe](T)[sp].[moe](A)[sp].[moe](A)[sp].d(T)[sp].d(A)[sp].d([m5C])[sp].d(T)[sp].d(T)[sp].d(T)[sp].d(T)[sp].d(T)[sp].d([m5C])[sp].d([m5C])[sp].[moe](A)[sp].[moe](G)p.[moe]([m5C])[sp].[moe]([m5C])}$$$$ (last 3' nucleoside missing)”, the 3 h FOB score amounted to 1 score 0-7.

“RNA1{[moe](G)[sp].[moe](T)p.[moe](T)p.[moe](A)p.[moe](A)p.[moe](T)p.d(A)[sp].d([m5C])[sp].d(T)[sp].d(T)[sp].d(T)[sp].d(T)[sp].d(T)[sp].d([m5C])[sp].d([m5C])[sp].d(A)[sp].[moe](G)p.[moe]([m5C])[sp].[moe]([m5C])}$$$$ (last 3' nucleoside missing)” displayed a 3 h FOB score of 1 score 0-7.

Consider “RNA1{[moe](G)[sp].[moe](T)p.[moe](T)p.[moe](A)p.[moe](A)p.d(T)[sp].d(A)[sp].d([m5C])[sp].d(T)[sp].d(T)[sp].d(T)[sp].d(T)[sp].d(T)[sp].d([m5C])[sp].d([m5C])[sp].[moe](A)p.[moe](G)p.[moe]([m5C])[sp].[moe]([m5C])}$$$$ (last 3' nucleoside missing)”, for which the 3 h FOB score was 1 score 0-7.

Turning to “RNA1{[moe](G)[sp].[moe](T)p.[moe](T)p.[moe]([m5C])p.[moe](A)p.[moe](T)p.d(A)[sp].d(T)[sp].d([m5C])[sp].d([m5C])[sp].d(T)[sp].d(T)[sp].d(T)[sp].d(A)[sp].d(A)[sp].d([m5C])[sp].[moe]([m5C])p.[moe]([m5C])[sp].[moe](A)}$$$$ (last 3' nucleoside missing)”, the 3 h FOB score amounted to 0.25 score 0-7.

For the substance “RNA1{[moe](G)[sp].[moe](T)p.[moe](T)p.[moe]([m5C])p.[moe]([m5C])p.d(A)[sp].d(G)[sp].d(A)[sp].d(T)[sp].d([m5C])[sp].d(A)[sp].d([m5C])[sp].d([m5C])[sp].d(A)[sp].d(T)[sp].[moe]([m5C])p.[moe](T)p.[moe](T)[sp].[moe](T)}$$$$ (last 3' nucleoside missing)”, the 3 h FOB score came to 3.5 score 0-7.

Consider “RNA1{[moe](G)[sp].[moe]([m5C])[sp].[moe](A)p.[moe]([m5C])p.[moe]([m5C])[sp].d(A)[sp].d(T)[sp].d(A)[sp].d(T)[sp].d(A)[sp].d(T)[sp].d(A)[sp].d(T)[sp].d([m5C])[sp].d(T)[sp].[moe]([m5C])p.[moe](A)p.[moe](G)[sp].[moe](A)}$$$$ (last 3' nucleoside missing)”, for which the 3 h FOB score is 1 score 0-7.

Substance “RNA1{[moe](G)[sp].[moe]([m5C])[sp].[moe](T)p.[moe]([m5C])p.[moe](A)[sp].d(T)[sp].d(T)[sp].d(T)[sp].d(A)[sp].d(T)[sp].d(T)[sp].d([m5C])[sp].d(T)[sp].d([m5C])[sp].d(A)[sp].[moe](A)p.[moe](G)p.[moe](T)[sp].[moe](A)}$$$$ (last 3' nucleoside missing)” registered a 3 h FOB score of 1 score 0-7.

On to “RNA1{[moe](G)[sp].[moe]([m5C])p.[moe](A)[sp].[moe]([m5C])[sp].[moe]([m5C])[sp].d(A)[sp].d(T)[sp].d(A)[sp].d(T)[sp].d(A)[sp].d(T)[sp].d(A)[sp].d(T)[sp].d([m5C])[sp].d(T)[sp].[moe]([m5C])[sp].[moe](A)p.[moe](G)[sp].[moe](A)}$$$$ (last 3' nucleoside missing)”, for which the 3 h FOB score came out at 0 score 0-7.

For the substance “RNA1{[moe](G)[sp].[moe]([m5C])p.[moe](A)p.[moe](T)p.[moe](A)[sp].d(T)[sp].d(T)[sp].d(G)[sp].d(G)[sp].d(T)[sp].d(T)[sp].d(T)[sp].d(T)[sp].d([m5C])[sp].[moe](T)p.[moe]([m5C])p.[moe](A)[sp].[moe](T)}$$$$ (last 3' nucleoside missing)”, the 3 h FOB score was 5.5 score 0-7.

In turn, “RNA1{[moe](G)[sp].[moe]([m5C])p.[moe](A)p.[moe](T)p.[moe](A)[sp].d(T)[sp].d(T)[sp].d(G)[sp].d(G)[sp].d(T)[sp].d(T)[sp].d(T)[sp].d(T)[sp].d([m5C])[sp].d(T)[sp].[moe]([m5C])p.[moe](A)p.[moe](T)p.[moe](T)}$$$$ (last 3' nucleoside missing)” showed a 3 h FOB score of 3 score 0-7.

Consider “RNA1{[moe](G)[sp].[moe]([m5C])p.[moe](A)p.[moe](T)p.[moe](A)p.[moe](T)p.d(T)[sp].d(G)[sp].d(G)[sp].d(T)[sp].d(T)[sp].d(T)[sp].d(T)[sp].d([m5C])[sp].d(T)[sp].d([m5C])[sp].[moe](A)p.[moe](T)[sp].[moe](T)}$$$$ (last 3' nucleoside missing)”, for which the 3 h FOB score was found to be 3 score 0-7.

Substance “RNA1{[moe](G)[sp].[moe]([m5C])p.[moe](A)p.[moe](T)p.[moe](A)p.d(T)[sp].d(T)[sp].d(G)[sp].d(G)[sp].d(T)[sp].d(T)[sp].d(T)[sp].d(T)[sp].d([m5C])[sp].d(T)[sp].[moe]([m5C])p.[moe](A)p.[moe](T)[sp].[moe](T)}$$$$ (last 3' nucleoside missing)” registered a 3 h FOB score of 2.5 score 0-7.

Substance “RNA1{[moe](G)[sp].[moe]([m5C])p.[moe](A)p.[moe](T)p.[moe](A)p.d(T)[sp].d(T)[sp].d(G)[sp].d(G)[sp].d(T)[sp].d(T)[sp].d(T)[sp].d(T)[sp].d([m5C])[sp].d(T)[sp].[moe]([m5C])p.[moe](A)p.[moe](T)p.[moe](T)}$$$$ (last 3' nucleoside missing)” came in with a 3 h FOB score of 3 score 0-7.

In the case of “RNA1{[moe](G)[sp].[moe]([m5C])p.[moe](A)p.[moe]([m5C])p.[moe](A)p.[moe](T)p.d(T)[sp].d(T)[sp].d(T)[sp].d(T)[sp].d(T)[sp].d(A)[sp].d(T)[sp].d(A)[sp].d(G)[sp].d(A)[sp].[moe](G)p.[moe](T)[sp].[moe](T)}$$$$ (last 3' nucleoside missing)”, the 3 h FOB score came to 1 score 0-7.

“RNA1{[moe](G)[sp].[moe]([m5C])p.[moe](A)p.[moe]([m5C])p.[moe](A)p.[moe]([m5C])p.d(T)[sp].d(T)[sp].d(T)[sp].d([m5C])[sp].d([m5C])[sp].d(T)[sp].d([m5C])[sp].d([m5C])[sp].d(T)[sp].d([m5C])[sp].[moe](A)p.[moe](A)[sp].[moe](T)}$$$$ (last 3' nucleoside missing)” showed a 3 h FOB score of 0 score 0-7.

In turn, “RNA1{[moe](G)[sp].[moe]([m5C])p.[moe](A)p.[moe]([m5C])p.[moe]([m5C])p.[moe](A)p.d(T)[sp].d(A)[sp].d(T)[sp].d(A)[sp].d(T)[sp].d(A)[sp].d(T)[sp].d([m5C])[sp].d(T)[sp].d([m5C])[sp].[moe](A)p.[moe](G)[sp].[moe](A)}$$$$ (last 3' nucleoside missing)” returned a 3 h FOB score of 0.25 score 0-7.

Substance “RNA1{[moe](G)[sp].[moe]([m5C])p.[moe](A)p.[moe]([m5C])p.[moe]([m5C])p.d(A)[sp].d(T)[sp].d(A)[sp].d(T)[sp].d(A)[sp].d(T)[sp].d(A)[sp].d(T)[sp].d([m5C])[sp].d(T)[sp].[moe]([m5C])p.[moe](A)p.[moe](G)[sp].[moe](A)}$$$$ (last 3' nucleoside missing)” gave a 3 h FOB score of 1 score 0-7.

In turn, “RNA1{[moe](G)[sp].[moe]([m5C])p.[moe](T)[sp].[moe]([m5C])[sp].[moe](A)[sp].d(T)[sp].d(T)[sp].d(T)[sp].d(A)[sp].d(T)[sp].d(T)[sp].d([m5C])[sp].d(T)[sp].d([m5C])[sp].d(A)[sp].[moe](A)[sp].[moe](G)p.[moe](T)[sp].[moe](A)}$$$$ (last 3' nucleoside missing)” displayed a 3 h FOB score of 2 score 0-7.

For the substance “RNA1{[moe](G)[sp].[moe]([m5C])p.[moe](T)p.[moe](A)p.[moe](T)[sp].d(A)[sp].d(A)[sp].d(T)[sp].d(T)[sp].d([m5C])[sp].d(T)[sp].d(T)[sp].d(G)[sp].d([m5C])[sp].d(T)[sp].[moe](T)p.[moe]([m5C])p.[moe](A)[sp].[moe](A)}$$$$ (last 3' nucleoside missing)”, the 3 h FOB score worked out at 1.75 score 0-7.

As to “RNA1{[moe](G)[sp].[moe]([m5C])p.[moe](T)p.[moe]([m5C])p.[moe](A)p.[moe](T)p.d(T)[sp].d(T)[sp].d(A)[sp].d(T)[sp].d(T)[sp].d([m5C])[sp].d(T)[sp].d([m5C])[sp].d(A)[sp].d(A)[sp].[moe](G)p.[moe](T)[sp].[moe](A)}$$$$ (last 3' nucleoside missing)”, the 3 h FOB score turned out to be 0 score 0-7.
